The values that follow come from patent US20170081368A1, “PEPTIDES AS OXYTOCIN AGONISTS” (Hoffmann-La Roche Inc., priority 2014, published 2017).

Assay [1] addresses T1, human Oxytocin (OTR) receptor (Homo sapiens, UniProt P30559).
T1 construct: expressed in transfected cells
T1 sequence (P30559 1-389): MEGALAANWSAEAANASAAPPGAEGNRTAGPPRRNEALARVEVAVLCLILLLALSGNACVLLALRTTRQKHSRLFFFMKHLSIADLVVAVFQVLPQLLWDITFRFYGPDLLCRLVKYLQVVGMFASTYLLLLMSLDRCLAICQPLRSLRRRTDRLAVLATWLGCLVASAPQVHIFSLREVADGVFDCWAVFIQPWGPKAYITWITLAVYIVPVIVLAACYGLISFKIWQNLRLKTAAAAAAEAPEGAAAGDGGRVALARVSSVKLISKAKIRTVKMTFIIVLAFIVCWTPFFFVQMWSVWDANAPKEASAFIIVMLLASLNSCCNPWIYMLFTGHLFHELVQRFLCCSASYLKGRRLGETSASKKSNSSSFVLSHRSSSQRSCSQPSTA
Briefly: Calcium flux assay (FLIPR) in CHO cells expressing human OTR. As to conditions: for Emax: CHO, read-out: hOT efficacy; for Emax / hOT efficacy: maximum response normalized to endogenous full agonist = 100%; for EC50: agonist mode, CHO cells, calcium flux FLIPR, read-out: hOT EC50. Type of assay: cell-based. The source says:
(§1) Chines Hamster Ovary (CHO) cells were transfected with expression plasmids encoding either the human Vla, the human Oxytocin (OTR) or the humanV2 receptor, the later in combination with the chimeric Gqs5 G protein to redirect the signal to Calcium flux. Stable cells were cloned by limiting dilution to yield monoclonal cell lines expressing either human Vla, human V2+Gqs5 or human OTR receptors and selected based on functional responses detected on a fluorometric imaging plate reader (FLIPR) detecting Calcium flux in the cell after receptor activation. The stable cell lines were grown in F-12 K Nutrient Mixture (Kaighns Modification), containing 10% foetal bovine serum (FBS), 1% penicillin-streptomycin, 1% L-glutamate, 200 ug/ml Geneticin at 37° C. in a 10% CO2 incubator at 95% humidity.
(§2) Calcium Flux Assays Using Fluorescent Imaging (Fluorometric Imaging Plate Reader, FLIPR)
(§3) On the afternoon before the assay, cells were plated at a density of 50,000 cells/well into black 96 well plates with clear bottoms to allow cell inspection and fluorescence measurements from the bottom of each well. The density of cells was sufficient to yield a confluent monolayer the next day. Hanks balanced salt solution, without phenol red, containing 20 mM HEPES (pH 7.3) and 2.5 mM probenecid (assay buffer) was prepared fresh for each experiment. Compound dilutions were made using a Beckman Biomek 2000 laboratory automation workstation, in assay buffer containing 1% DMSO. The dye-loading buffer consisted of a final concentration of 2 μM Fluo-4-AM (dissolved in DMSO and pluronic acid) in assay buffer. The existing culture media was removed from the wells and 100 μl of the dye-loading buffer was added to each well and incubated for approximately 60 min at 37° C. in a 5% CO2 incubator at 95% humidity. Once dye-loaded, the cells were washed thoroughly on an Embla cell washer with the assay buffer to remove any unincorporated dye. Exactly 100 μl assay buffer was left in each well.
(§4) Each 96 well plate containing dye-loaded cells was placed into the FLIPR machine and the laser intensity set to a suitable level to detect low basal fluorescence. To test compounds as agonists, 25 μl diluted compound was added to the plate 10 seconds into the fluorescent measurements and fluorescent response was recorded for 5 minutes. The fluorescence data was normalized to the endogenous full agonist dose-response set at 100% for the maximum response and 0% for the minimum. Each agonist concentration-response curve was constructed using a four parameter logistic equation with Microsoft Excel XLFit as follows: Y=Minimum+((Maximum−Minimum)/(1+10^(LogEC50−X)nH)), where y is the % normalized fluorescence, minimum is the minimum y, maximum is the maximum y, log EC50 is the log10 concentration which produces 50% of the maximum induced fluorescence, x is the log10 of the concentration of the agonist compound and H is the slope of the curve (the Hill Coefficient). The maximum value gives the efficacy of the agonist test compound in percentage. The concentration of agonist that produced a half-maximal response is represented by the EC50 value, the logarithm of which yielded the pEC50 value.
(In general: Calcium assays in cells follow changes in intracellular calcium, usually with a dye or a luminescent sensor.)

A further assay deals with T2, human V2 receptor (Homo sapiens, UniProt P30518).
T2 construct: expressed in transfected cells
T2 sequence (P30518 whole entry): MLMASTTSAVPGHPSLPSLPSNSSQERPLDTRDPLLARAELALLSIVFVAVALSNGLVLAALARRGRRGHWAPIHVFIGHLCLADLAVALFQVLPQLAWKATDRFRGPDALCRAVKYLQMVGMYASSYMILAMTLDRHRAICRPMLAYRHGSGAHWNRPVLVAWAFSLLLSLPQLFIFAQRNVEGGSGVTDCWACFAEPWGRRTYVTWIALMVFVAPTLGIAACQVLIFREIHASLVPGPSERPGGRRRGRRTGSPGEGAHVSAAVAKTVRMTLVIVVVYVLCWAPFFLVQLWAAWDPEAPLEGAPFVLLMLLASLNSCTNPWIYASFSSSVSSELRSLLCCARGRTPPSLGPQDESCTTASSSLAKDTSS
Description: Calcium flux assay (FLIPR) in CHO cells expressing human V2+Gqs5. Type of assay: cell-based. The conditions noted are these: for Emax: CHO, maximum response normalized to endogenous full agonist = 100%, read-out: hV2 efficacy; for EC50: agonist mode, CHO cells with chimeric Gqs5, calcium flux FLIPR, read-out: hV2 EC50.
Text: as §1, §2, §3, §4

Where a SMILES comes first, the peptide text is derived from it.

Consider `CC[C@H](C)[C@@H]1NC(=O)[C@H](Cc2ccc(O)cc2)NC(=O)CCS(=O)(=O)CC[C@@H](C(=O)N(C)CC(=O)N[C@@H](Cc2ccccc2)C(=O)NCC(N)=O)NC(=O)[C@H](CC(N)=O)NC(=O)[C@H](CCC(N)=O)NC1=O` [Example 16] (HELM PEPTIDE1{Y.I.Q.N.[O=C([C@H](CCS(=O)(=O)CCC(=O)[*:3])N[*:1])[*:2]].[Sar].F.G.[am]}$PEPTIDE1,PEPTIDE1,1:R1-5:R3$$$V2.0), for which, in assay [1], the Emax came out at 104% and the half-maximal effective concentration (EC50) amounted to 5.6 nM.

`CC[C@H](C)[C@@H]1NC(=O)[C@H](Cc2ccc(O)cc2)NC(=O)CCS(=O)(=O)CC[C@@H](C(=O)N(C)CC(=O)N[C@@H](Cc2ccc(O)cc2)C(=O)NCC(N)=O)NC(=O)[C@H](CC(N)=O)NC(=O)[C@H](CCC(N)=O)NC1=O` [Example 17] (HELM PEPTIDE1{Y.I.Q.N.[O=C([C@H](CCS(=O)(=O)CCC(=O)[*:3])N[*:1])[*:2]].[Sar].Y.G.[am]}$PEPTIDE1,PEPTIDE1,1:R1-5:R3$$$V2.0): in assay [1], the Emax was 105% and the EC50 turned out to be 2.2 nM.

On to `CC[C@H](C)[C@@H]1NC(=O)[C@H](Cc2ccc(O)cc2)NC(=O)CCS(=O)(=O)CC[C@@H](C(=O)N(C)CC(=O)N[C@@H](CO)C(=O)NCC(N)=O)NC(=O)[C@H](CC(N)=O)NC(=O)[C@H](CCC(N)=O)NC1=O` [Example 18] (HELM PEPTIDE1{Y.I.Q.N.[O=C([C@H](CCS(=O)(=O)CCC(=O)[*:3])N[*:1])[*:2]].[Sar].S.G.[am]}$PEPTIDE1,PEPTIDE1,1:R1-5:R3$$$V2.0; C-terminus assumed; bridges inferred), for which the Emax in assay [1] was 102%.

With `CC[C@H](C)[C@@H]1NC(=O)[C@H](Cc2ccc(O)cc2)NC(=O)CCS(=O)(=O)CC[C@@H](C(=O)N(C)CC(=O)N[C@@H](C)C(=O)NCC(N)=O)NC(=O)[C@H](CC(N)=O)NC(=O)[C@H](CCC(N)=O)NC1=O` [Example 19] (HELM PEPTIDE1{Y.I.Q.N.[O=C([C@H](CCS(=O)(=O)CCC(=O)[*:3])N[*:1])[*:2]].[Sar].A.G.[am]}$PEPTIDE1,PEPTIDE1,1:R1-5:R3$$$V2.0), in assay [1], the Emax is 110% and the EC50 was 1.4 nM.

As for `CC[C@H](C)[C@@H]1NC(=O)[C@H](Cc2ccc(O)cc2)NC(=O)CCS(=O)(=O)CC[C@@H](C(=O)N(C)CC(=O)N[C@@H](CN)C(=O)NCC(N)=O)NC(=O)[C@H](CC(N)=O)NC(=O)[C@H](CCC(N)=O)NC1=O` [Example 20] (HELM PEPTIDE1{Y.I.Q.N.[O=C([C@H](CCS(=O)(=O)CCC(=O)[*:3])N[*:1])[*:2]].[Sar].[NC[C@H](N[*:1])C(=O)[*:2]].G.[am]}$PEPTIDE1,PEPTIDE1,1:R1-5:R3$$$V2.0), in assay [1], the Emax is 113% and the EC50 amounted to 12.9 nM.

Take `CC[C@H](C)[C@@H]1NC(=O)[C@H](Cc2ccc(O)cc2)NC(=O)CCS(=O)(=O)CC[C@@H](C(=O)N(C)CC(=O)N[C@H](C(=O)NCC(N)=O)C2CCCCC2)NC(=O)[C@H](CC(N)=O)NC(=O)[C@H](CCC(N)=O)NC1=O` [Example 21] (HELM PEPTIDE1{Y.I.Q.N.[O=C([C@H](CCS(=O)(=O)CCC(=O)[*:3])N[*:1])[*:2]].[Sar].[O=C([C@@H](N[*:1])C1CCCCC1)[*:2]].G.[am]}$PEPTIDE1,PEPTIDE1,1:R1-5:R3$$$V2.0): in assay [1], the Emax was found to be 117% and the half-maximal effective concentration (EC50) worked out at 0.4 nM.

Take `CC[C@H](C)[C@@H]1NC(=O)[C@H](Cc2ccc(O)cc2)NC(=O)CCS(=O)(=O)CC[C@@H](C(=O)N(C)CC(=O)N[C@@](C)(CC(C)C)C(=O)NCC(N)=O)NC(=O)[C@H](CC(N)=O)NC(=O)[C@H](CCC(N)=O)NC1=O` [Example 22] (HELM PEPTIDE1{Y.I.Q.N.[O=C([C@H](CCS(=O)(=O)CCC(=O)[*:3])N[*:1])[*:2]].[Sar].[CC(C)C[C@](C)(N[*:1])C(=O)[*:2]].G.[am]}$PEPTIDE1,PEPTIDE1,1:R1-5:R3$$$V2.0): in assay [1], the Emax came to 109% and the EC50 turned out to be 2.5 nM.

Turning to `CCC[C@H](NC(=O)[C@@H]1CCS(=O)(=O)CCC(=O)N[C@@H](Cc2ccc(O)cc2)C(=O)N[C@@H]([C@@H](C)CC)C(=O)N[C@@H](CCC(N)=O)C(=O)N[C@@H](CC(N)=O)C(=O)N1)C(=O)N[C@@H](CC(C)C)C(=O)NCC(N)=O` [Example 23] (HELM PEPTIDE1{Y.I.Q.N.[O=C([C@H](CCS(=O)(=O)CCC(=O)[*:3])N[*:1])[*:2]].[Nva].L.G.[am]}$PEPTIDE1,PEPTIDE1,1:R1-5:R3$$$V2.0), in assay [1], the EC50 turned out to be 23 nM and the hOT efficacy was determined as 123%.

In the case of `CCCC[C@H](NC(=O)[C@@H]1CCS(=O)(=O)CCC(=O)N[C@@H](Cc2ccc(O)cc2)C(=O)N[C@@H]([C@@H](C)CC)C(=O)N[C@@H](CCC(N)=O)C(=O)N[C@@H](CC(N)=O)C(=O)N1)C(=O)N[C@@H](CC(C)C)C(=O)NCC(N)=O` [Example 24] (HELM PEPTIDE1{Y.I.Q.N.[O=C([C@H](CCS(=O)(=O)CCC(=O)[*:3])N[*:1])[*:2]].[Nle].L.G.[am]}$PEPTIDE1,PEPTIDE1,1:R1-5:R3$$$V2.0), in assay [1], the concentration giving a half-maximal response (EC50) is 40 nM and the hOT efficacy is 114%.

Consider `CC[C@H](C)[C@@H]1NC(=O)[C@H](Cc2ccc(O)cc2)NC(=O)CCS(=O)(=O)CC[C@@H](C(=O)N[C@@H](CO)C(=O)N[C@@H](CC(C)C)C(=O)NCC(N)=O)NC(=O)[C@H](CC(N)=O)NC(=O)[C@H](CCC(N)=O)NC1=O` [Example 25] (HELM PEPTIDE1{Y.I.Q.N.[O=C([C@H](CCS(=O)(=O)CCC(=O)[*:3])N[*:1])[*:2]].S.L.G.[am]}$PEPTIDE1,PEPTIDE1,1:R1-5:R3$$$V2.0), for which, in assay [1], the 50% effective concentration (EC50) came out at 16 nM and the hOT efficacy was 137%.

Turning to `CC[C@H](C)[C@@H]1NC(=O)[C@H](Cc2ccc(O)cc2)NC(=O)CCS(=O)(=O)CC[C@@H](C(=O)N[C@@H](CCO)C(=O)N[C@@H](CC(C)C)C(=O)NCC(N)=O)NC(=O)[C@H](CC(N)=O)NC(=O)[C@H](CCC(N)=O)NC1=O` [Example 26] (HELM PEPTIDE1{Y.I.Q.N.[O=C([C@H](CCS(=O)(=O)CCC(=O)[*:3])N[*:1])[*:2]].[O=C([C@H](CCO)N[*:1])[*:2]].L.G.[am]}$PEPTIDE1,PEPTIDE1,1:R1-5:R3$$$V2.0), in assay [1], the Emax was 140% and the EC50 was 7 nM.

Regarding `CC[C@H](C)[C@@H]1NC(=O)[C@H](Cc2ccc(O)cc2)NC(=O)CCS(=O)(=O)CC[C@@H](C(=O)N(CC(=O)N[C@H](C(=O)NCC(N)=O)C(C)C)C2CC2)NC(=O)[C@H](CC(N)=O)NC(=O)[C@H](CCC(N)=O)NC1=O` [Example 29] (HELM PEPTIDE1{Y.I.Q.N.[O=C([C@H](CCS(=O)(=O)CCC(=O)[*:3])N[*:1])[*:2]].[O=C(CN(C1CC1)[*:1])[*:2]].V.G.[am]}$PEPTIDE1,PEPTIDE1,1:R1-5:R3$$$V2.0), in assay [1], the Emax was 105% and the concentration for a half-maximal effect (EC50) worked out at 0.5 nM. In addition, on human V2 receptor, the Emax turned out to be 143% and the EC50 was determined as 3340 nM.

As to `CC[C@H](C)[C@@H]1NC(=O)[C@H](Cc2ccc(O)cc2)NC(=O)CCS(=O)(=O)CC[C@@H](C(=O)N(CC(=O)NC(C)(C)C(=O)NCC(N)=O)C2CC2)NC(=O)[C@H](CC(N)=O)NC(=O)[C@H](CCC(N)=O)NC1=O` [Example 30] (HELM PEPTIDE1{Y.I.Q.N.[O=C([C@H](CCS(=O)(=O)CCC(=O)[*:3])N[*:1])[*:2]].[O=C(CN(C1CC1)[*:1])[*:2]].[Aib].G.[am]}$PEPTIDE1,PEPTIDE1,1:R1-5:R3$$$V2.0), in assay [1], the concentration giving a half-maximal response (EC50) was determined as 1 nM and the hOT efficacy was 97%. Moreover, on human V2 receptor, the Emax worked out at 131% and the half-maximal effective concentration (EC50) is 6340 nM.

Broadly, the EC50 is the concentration giving half of the maximal effect.
